# Measurements reported in patent US20080009418A1, “Selective Inhibitors” (Alchemia LTD., priority 2004, published 2008).
# How the values were obtained:
# Settings in all cases: compound at 10 μM
# [1] = biological target: T1, Human δ-opioid (DOP) (Homo sapiens, UniProt P41143); test: Radioligand binding, human δ-opioid (DOP) membranes, FlashPlate, [3H]-Bremazocine
# T1 construct: purchased Perkin Elmer Biosignal
# Summary of the method: (§1)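 Cloned human receptor membranes were coated onto FlashPlate wells and incubated with radioligand and compound (added from a 0.5 mM DMSO daughter plate) for 1 hour at room temperature in the dark. Scintillation counting gave percent inhibition, with DMSO defining total and reference ligand defining non-specific binding.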
# [2] = biological target: T2, Human κ-Opioid (KOP) (Homo sapiens, UniProt P41145); test: Radioligand binding, human κ-opioid (KOP) membranes, filtration, [3H]-Diprenorphine
# T2 construct: purchased Perkin Elmer Biosignal
# Summary of the method: (§2)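 Filtration binding on cloned human receptor membranes (1 Unit/well), [125I]-Substance P for NK1 and [3H]-Diprenorphine for KOP, 1 h at room temperature. Filters PEI-presoaked, washed with cold 50 mM Tris-HCl pH 7.4, counted by scintillation; percent inhibition calculated, reference ligand defining non-specific binding.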
# [3] = biological target: T3, Human Melanocortin (MC3) (Homo sapiens, UniProt P41968); test: Radioligand binding, human melanocortin MC3 membranes, FlashPlate, [125I]-NDP-αMSH
# T3 construct: purchased Perkin Elmer Biosignal
# Summary of the method: as §1
# [4] = biological target: T4, Human Melanocortin (MC4) (Homo sapiens, UniProt P32245); test: Radioligand binding, human melanocortin MC4 membranes, FlashPlate, [125I]-NDP-αMSH
# T4 construct: purchased Perkin Elmer Biosignal
# Summary of the method: as §1
# [5] = biological target: T5, Human melanocortin (MC5) (Homo sapiens, UniProt P33032); test: Radioligand binding, human melanocortin MC5 membranes, FlashPlate, [125I]-NDP-αMSH
# T5 construct: purchased Perkin Elmer Biosignal
# Summary of the method: as §1
# [6] = biological target: T6, Human melanin-concentrating hormone (MCH1) (Homo sapiens, UniProt Q99705); test: Radioligand binding, human melanin-concentrating hormone MCH1 membranes, FlashPlate, [125I]-S36057
# T6 construct: purchased Perkin Elmer Biosignal
# Summary of the method: as §1
# [7] = biological target: T7, Human μ-opioid (MOP) (Homo sapiens, UniProt P35372); test: Radioligand binding, human μ-opioid (MOP) membranes, FlashPlate, [3H]-Naloxone
# T7 construct: purchased Perkin Elmer Biosignal
# Summary of the method: as §1
# [8] = biological target: T8, Human neurokinin (NK1) (Homo sapiens, UniProt P25103); test: Radioligand binding, human neurokinin NK1 membranes, filtration, [125I]-Substance P
# T8 construct: purchased Perkin Elmer Biosignal
# Summary of the method: as §2
# [9] = biological target: T9, Human neuropeptide Y (NPY-Y1) (Homo sapiens, UniProt P25929); test: Radioligand binding, human neuropeptide Y NPY-Y1 membranes, FlashPlate, [125I]-PYY
# T9 construct: purchased Perkin Elmer Biosignal
# T9 sequence (P25929 1-384): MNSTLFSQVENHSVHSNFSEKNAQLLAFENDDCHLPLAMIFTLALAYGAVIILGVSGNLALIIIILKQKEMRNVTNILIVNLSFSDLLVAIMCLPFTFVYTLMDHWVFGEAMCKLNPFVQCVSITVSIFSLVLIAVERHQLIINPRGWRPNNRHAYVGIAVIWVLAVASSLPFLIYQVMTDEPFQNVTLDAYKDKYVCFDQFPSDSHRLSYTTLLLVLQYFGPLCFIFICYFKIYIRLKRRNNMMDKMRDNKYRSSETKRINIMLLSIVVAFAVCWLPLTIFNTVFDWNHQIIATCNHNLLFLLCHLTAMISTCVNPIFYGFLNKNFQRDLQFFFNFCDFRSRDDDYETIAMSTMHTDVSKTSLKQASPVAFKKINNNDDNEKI
# Summary of the method: as §1
# [10] = biological target: T10, Human opioid (ORL1) (Homo sapiens, UniProt P41146); test: Radioligand binding, human opioid ORL1 membranes, FlashPlate, [125I]-Nociceptin
# T10 construct: purchased Perkin Elmer Biosignal
# Summary of the method: as §1
# [11] = biological target: T11, Mouse urotensin (mUR2) (Mus musculus, UniProt Q8VIH9); test: Radioligand binding, mouse urotensin mUR2 membranes, FlashPlate, [125I]-Urotensin II
# T11 construct: purchased Perkin Elmer Biosignal
# T11 sequence (Q8VIH9 1-385): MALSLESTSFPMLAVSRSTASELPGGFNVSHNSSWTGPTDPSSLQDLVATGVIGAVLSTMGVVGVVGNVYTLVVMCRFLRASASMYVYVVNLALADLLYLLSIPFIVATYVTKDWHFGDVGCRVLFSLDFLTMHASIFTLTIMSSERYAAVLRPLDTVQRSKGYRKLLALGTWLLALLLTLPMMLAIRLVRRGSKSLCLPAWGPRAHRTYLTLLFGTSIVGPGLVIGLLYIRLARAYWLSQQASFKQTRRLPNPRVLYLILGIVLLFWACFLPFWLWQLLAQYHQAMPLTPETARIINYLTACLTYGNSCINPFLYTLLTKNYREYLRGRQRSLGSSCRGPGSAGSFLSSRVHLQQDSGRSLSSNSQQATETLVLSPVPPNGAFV
# Summary of the method: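 Cloned mouse urotensin (mUR2) receptor membranes from Perkin Elmer Biosignal were immobilized in FlashPlate microplates using a proprietary coating. Each well got 19.5 μl buffer, then 0.5 μl of DMSO, reference ligand, or compound. Adding 5 μl of [125I]-Urotensin II, diluted to 5× final concentration in binding buffer, started binding. Plates were sealed with TopSeal-A and incubated 1 hour at room temperature in the dark. Wells were counted for 30 seconds each on a TopCount after a 60-second delay, and percentage inhibition was calculated.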
# [12] = [3H]-Bremazocine, human DOP membranes
# [13] = [3H]-Diprenorphine, human KOP membranes
# [14] = [125I]-NDP-αMSH, human MC5 membranes
# [15] = [125I]-S36057, human MCH1 membranes
# [16] = [3H]-Naloxone, human MOP membranes
# [17] = [125I]-Substance P, human NK1 membranes
# [18] = [125I]-PYY, human NPY-Y1 membranes
# [19] = [125I]-Urotensin II, mouse mUR2 membranes
# T8 sequence (P25103 whole entry): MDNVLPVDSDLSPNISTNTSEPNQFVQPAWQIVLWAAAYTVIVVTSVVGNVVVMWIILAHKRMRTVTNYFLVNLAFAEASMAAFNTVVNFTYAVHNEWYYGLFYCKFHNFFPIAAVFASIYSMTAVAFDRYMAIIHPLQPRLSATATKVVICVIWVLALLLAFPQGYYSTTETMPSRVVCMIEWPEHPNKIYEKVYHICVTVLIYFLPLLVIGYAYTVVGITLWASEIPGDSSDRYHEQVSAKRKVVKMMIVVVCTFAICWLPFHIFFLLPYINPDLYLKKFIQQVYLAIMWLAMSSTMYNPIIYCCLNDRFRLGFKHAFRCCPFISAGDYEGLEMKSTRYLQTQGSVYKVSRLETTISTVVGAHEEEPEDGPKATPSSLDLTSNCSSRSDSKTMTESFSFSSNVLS
# T7 sequence (P35372 whole entry): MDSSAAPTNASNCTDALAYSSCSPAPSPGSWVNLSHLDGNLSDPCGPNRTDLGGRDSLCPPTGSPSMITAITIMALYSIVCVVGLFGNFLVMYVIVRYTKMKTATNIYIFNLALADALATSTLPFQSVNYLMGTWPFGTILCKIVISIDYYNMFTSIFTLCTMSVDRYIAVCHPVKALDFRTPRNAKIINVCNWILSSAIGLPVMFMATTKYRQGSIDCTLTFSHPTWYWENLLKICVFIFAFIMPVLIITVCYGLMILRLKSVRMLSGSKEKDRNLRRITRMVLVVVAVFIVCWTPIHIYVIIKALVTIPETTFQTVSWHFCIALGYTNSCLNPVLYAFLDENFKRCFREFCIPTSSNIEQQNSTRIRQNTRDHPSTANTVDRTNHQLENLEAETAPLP
# T1 sequence (P41143 whole entry): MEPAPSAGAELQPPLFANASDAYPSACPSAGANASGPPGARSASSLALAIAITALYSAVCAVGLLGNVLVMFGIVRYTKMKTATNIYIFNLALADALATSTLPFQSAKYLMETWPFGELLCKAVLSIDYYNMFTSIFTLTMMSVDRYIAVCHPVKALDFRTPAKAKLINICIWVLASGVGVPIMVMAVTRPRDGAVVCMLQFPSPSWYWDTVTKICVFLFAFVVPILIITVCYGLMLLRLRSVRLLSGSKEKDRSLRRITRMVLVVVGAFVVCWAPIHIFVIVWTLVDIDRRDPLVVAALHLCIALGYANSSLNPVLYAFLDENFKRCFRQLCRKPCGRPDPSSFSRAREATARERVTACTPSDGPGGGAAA
# T6 sequence (Q99705 whole entry): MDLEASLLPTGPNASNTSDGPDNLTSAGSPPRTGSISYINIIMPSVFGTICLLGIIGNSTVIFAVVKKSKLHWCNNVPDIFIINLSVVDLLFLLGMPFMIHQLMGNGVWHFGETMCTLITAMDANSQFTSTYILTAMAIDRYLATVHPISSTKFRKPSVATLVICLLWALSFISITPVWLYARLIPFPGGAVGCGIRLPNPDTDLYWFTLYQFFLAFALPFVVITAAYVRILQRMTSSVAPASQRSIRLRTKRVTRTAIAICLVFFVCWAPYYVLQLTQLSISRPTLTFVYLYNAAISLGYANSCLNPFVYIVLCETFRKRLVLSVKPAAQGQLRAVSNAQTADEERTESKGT
# T10 sequence (P41146 whole entry): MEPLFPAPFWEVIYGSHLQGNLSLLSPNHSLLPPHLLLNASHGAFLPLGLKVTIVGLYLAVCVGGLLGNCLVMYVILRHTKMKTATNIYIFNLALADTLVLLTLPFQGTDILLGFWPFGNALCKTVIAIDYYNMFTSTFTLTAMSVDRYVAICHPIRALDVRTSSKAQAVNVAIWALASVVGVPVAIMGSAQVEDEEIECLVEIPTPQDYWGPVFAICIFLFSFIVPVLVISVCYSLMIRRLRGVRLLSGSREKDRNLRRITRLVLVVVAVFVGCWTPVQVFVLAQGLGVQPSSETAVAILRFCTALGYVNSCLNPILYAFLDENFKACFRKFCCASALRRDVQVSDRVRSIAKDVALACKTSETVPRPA
# T5 sequence (P33032 whole entry): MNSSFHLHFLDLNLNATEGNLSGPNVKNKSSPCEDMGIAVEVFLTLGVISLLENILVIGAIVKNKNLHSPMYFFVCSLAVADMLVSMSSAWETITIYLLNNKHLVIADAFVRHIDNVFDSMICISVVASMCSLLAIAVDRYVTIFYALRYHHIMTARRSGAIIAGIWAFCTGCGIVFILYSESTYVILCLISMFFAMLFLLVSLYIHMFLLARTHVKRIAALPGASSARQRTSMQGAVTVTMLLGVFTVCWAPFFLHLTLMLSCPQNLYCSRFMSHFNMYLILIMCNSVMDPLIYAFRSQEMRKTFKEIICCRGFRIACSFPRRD
# T4 sequence (P32245 whole entry): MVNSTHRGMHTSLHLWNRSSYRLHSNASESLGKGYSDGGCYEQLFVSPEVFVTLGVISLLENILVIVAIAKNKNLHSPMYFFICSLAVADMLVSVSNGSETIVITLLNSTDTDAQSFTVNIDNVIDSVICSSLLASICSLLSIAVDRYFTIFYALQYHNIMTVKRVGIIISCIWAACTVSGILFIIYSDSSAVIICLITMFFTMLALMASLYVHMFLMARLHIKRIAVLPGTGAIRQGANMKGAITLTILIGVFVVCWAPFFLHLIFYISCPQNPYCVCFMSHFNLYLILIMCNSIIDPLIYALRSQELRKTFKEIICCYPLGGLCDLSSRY
# T3 sequence (P41968 whole entry): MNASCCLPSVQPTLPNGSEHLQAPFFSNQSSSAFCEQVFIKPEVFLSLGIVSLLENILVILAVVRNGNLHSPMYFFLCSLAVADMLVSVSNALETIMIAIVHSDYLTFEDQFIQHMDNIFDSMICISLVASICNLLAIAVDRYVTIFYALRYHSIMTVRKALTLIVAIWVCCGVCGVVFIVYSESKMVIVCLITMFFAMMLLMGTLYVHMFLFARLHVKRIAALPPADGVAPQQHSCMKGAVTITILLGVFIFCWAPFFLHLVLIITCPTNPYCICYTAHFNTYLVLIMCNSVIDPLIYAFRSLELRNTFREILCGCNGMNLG
# T2 sequence (P41145 whole entry): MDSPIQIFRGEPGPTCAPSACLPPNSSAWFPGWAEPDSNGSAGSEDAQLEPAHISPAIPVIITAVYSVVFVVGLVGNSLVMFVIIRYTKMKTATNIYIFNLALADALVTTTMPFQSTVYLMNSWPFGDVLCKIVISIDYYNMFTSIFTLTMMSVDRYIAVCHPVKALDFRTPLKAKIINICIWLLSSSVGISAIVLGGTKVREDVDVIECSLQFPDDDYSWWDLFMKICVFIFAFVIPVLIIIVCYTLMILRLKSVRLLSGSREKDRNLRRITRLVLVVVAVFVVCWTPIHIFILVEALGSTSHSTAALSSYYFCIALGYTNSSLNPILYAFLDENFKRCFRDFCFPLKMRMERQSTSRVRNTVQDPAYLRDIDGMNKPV
smiles,measurement,setting,value
CO[C@H]1[C@H](O)[C@@H](COCc2cccc(O)c2)OC(OCc2ccc3ccccc3c2)[C@@H]1NC(=O)CNC(=N)N (stereo partly shown) [compound 150],"A1 radioligand binding, percentage inhibition",[1]; [3H]-Bremazocine,− (“−” indicates less than 50% inhibition at 10 μM)
same,"A2 radioligand binding, percentage inhibition",[2]; [3H]-Diprenorphine,+ (“+” indicates greater than 50% inhibition at 10 μM)
same,"A3 radioligand binding, percentage inhibition",[3]; [125I]-NDP-αMSH,− (“−” indicates less than 50% inhibition at 10 μM)
same,"A4 radioligand binding, percentage inhibition",[4]; [125I]-NDP-αMSH,− (“−” indicates less than 50% inhibition at 10 μM)
same,"A5 radioligand binding, percentage inhibition",[5]; [125I]-NDP-αMSH,+ (“+” indicates greater than 50% inhibition at 10 μM)
same,"A6 radioligand binding, percentage inhibition",[6]; [125I]-S36057,− (“−” indicates less than 50% inhibition at 10 μM)
same,"A7 radioligand binding, percentage inhibition",[7]; [3H]-Naloxone,+ (“+” indicates greater than 50% inhibition at 10 μM)
same,"A8 radioligand binding, percentage inhibition",[8]; [125I]-Substance P,− (“−” indicates less than 50% inhibition at 10 μM)
same,"A9 radioligand binding, percentage inhibition",[9]; [125I]-PYY,− (“−” indicates less than 50% inhibition at 10 μM)
same,"A10 radioligand binding, percentage inhibition",[10]; [125I]-Nociceptin,− (“−” indicates less than 50% inhibition at 10 μM)
same,"A11 radioligand binding, percentage inhibition",[11]; [125I]-Urotensin II,− (“−” indicates less than 50% inhibition at 10 μM)
N=C(N)NCCC(=O)NC1C(OCc2ccc(Cl)cc2)OC(COCc2ccccc2)C(O)C1OCc1ccc(Cl)cc1 (stereo not shown) [compound 427],A1: inhibition of radioligand binding,[1]; [12],− (“−” indicates less than 50% inhibition at 10 μM)
same,A2: inhibition of radioligand binding,[2]; [13],− (“−” indicates less than 50% inhibition at 10 μM)
same,A3: inhibition of radioligand binding,"[3]; [125I]-NDP-αMSH, human MC3 membranes",+ (“+” indicates greater than 50% inhibition at 10 μM)
same,A4: inhibition of radioligand binding,"[4]; [125I]-NDP-αMSH, human MC4 membranes",+ (“+” indicates greater than 50% inhibition at 10 μM)
same,A5: inhibition of radioligand binding,[5]; [14],+ (“+” indicates greater than 50% inhibition at 10 μM)
same,A6: inhibition of radioligand binding,[6]; [15],+ (“+” indicates greater than 50% inhibition at 10 μM)
same,A7: inhibition of radioligand binding,[7]; [16],− (“−” indicates less than 50% inhibition at 10 μM)
same,A8: inhibition of radioligand binding,[8]; [17],+ (“+” indicates greater than 50% inhibition at 10 μM)
same,A9: inhibition of radioligand binding,[9]; [18],− (“−” indicates less than 50% inhibition at 10 μM)
same,A10: inhibition of radioligand binding,"[10]; [125I]-Nociceptin, human ORL1 membranes",+ (“+” indicates greater than 50% inhibition at 10 μM)
same,A11: inhibition of radioligand binding,[11]; [19],− (“−” indicates less than 50% inhibition at 10 μM)
COCC1OC(OCc2ccc3ccccc3c2)C(NC(=O)CCN)C(OCc2ccc(Cl)cc2)C1O (stereo not shown) [compound 237],A1: inhibition of radioligand binding,"[1]; [3H]-Bremazocine, FlashPlate",− (“−” indicates less than 50% inhibition at 10 μM)
same,A2: inhibition of radioligand binding,"[2]; [3H]-Diprenorphine, filtration",− (“−” indicates less than 50% inhibition at 10 μM)
same,A3: inhibition of radioligand binding,"[3]; [125I]-NDP-αMSH, FlashPlate",− (“−” indicates less than 50% inhibition at 10 μM)
same,A4: inhibition of radioligand binding,"[4]; [125I]-NDP-αMSH, FlashPlate",− (“−” indicates less than 50% inhibition at 10 μM)
same,A5: inhibition of radioligand binding,"[5]; [125I]-NDP-αMSH, FlashPlate",+ (“+” indicates greater than 50% inhibition at 10 μM)
same,A6: inhibition of radioligand binding,"[6]; [125I]-S36057, FlashPlate",− (“−” indicates less than 50% inhibition at 10 μM)
same,A7: inhibition of radioligand binding,"[7]; [3H]-Naloxone, FlashPlate",− (“−” indicates less than 50% inhibition at 10 μM)
same,A8: inhibition of radioligand binding,"[8]; [125I]-Substance P, filtration",+ (“+” indicates greater than 50% inhibition at 10 μM)
same,A9: inhibition of radioligand binding,"[9]; [125I]-PYY, FlashPlate",− (“−” indicates less than 50% inhibition at 10 μM)
same,A10: inhibition of radioligand binding,"[10]; [125I]-Nociceptin, FlashPlate",− (“−” indicates less than 50% inhibition at 10 μM)
same,A11: inhibition of radioligand binding,"[11]; [125I]-Urotensin II, FlashPlate",− (“−” indicates less than 50% inhibition at 10 μM)
CO[C@H]1[C@H](O)[C@@H](COCc2ccc(-c3ccccc3)cc2)OC(OCc2ccc(-c3ccccc3)cc2)[C@@H]1NC(=O)CCCNC(=N)N (stereo partly shown) [compound 54],A1 radioligand binding inhibition,[1]; human δ-opioid (DOP) membranes,− (“−” indicates less than 50% inhibition at 10 μM)
same,A2 radioligand binding inhibition,[2]; human κ-opioid (KOP) membranes,− (“−” indicates less than 50% inhibition at 10 μM)
same,A3 radioligand binding inhibition,[3]; human melanocortin MC3 membranes,+ (“+” indicates greater than 50% inhibition at 10 μM)
same,A4 radioligand binding inhibition,[4]; human melanocortin MC4 membranes,+ (“+” indicates greater than 50% inhibition at 10 μM)
same,A5 radioligand binding inhibition,[5]; human melanocortin MC5 membranes,+ (“+” indicates greater than 50% inhibition at 10 μM)
same,A6 radioligand binding inhibition,[6]; human MCH1 membranes,+ (“+” indicates greater than 50% inhibition at 10 μM)
same,A7 radioligand binding inhibition,[7]; human μ-opioid (MOP) membranes,+ (“+” indicates greater than 50% inhibition at 10 μM)
same,A8 radioligand binding inhibition,[8]; human neurokinin NK1 membranes,+ (“+” indicates greater than 50% inhibition at 10 μM)
same,A9 radioligand binding inhibition,[9]; human NPY-Y1 membranes,− (“−” indicates less than 50% inhibition at 10 μM)
same,A10 radioligand binding inhibition,[10]; human ORL1 membranes,+ (“+” indicates greater than 50% inhibition at 10 μM)
same,A11 radioligand binding inhibition,[11]; mouse urotensin mUR2 membranes,− (“−” indicates less than 50% inhibition at 10 μM)
NCCCC(=O)NC1C(OCc2ccc3ccccc3c2)OC(COCc2ccccc2)C(O)C1OCc1ccc2ccccc2c1 (stereo not shown) [compound 462],A1: inhibition of radioligand binding,[1]; [12],− (“−” indicates less than 50% inhibition at 10 μM)
same,A2: inhibition of radioligand binding,[2]; [13],− (“−” indicates less than 50% inhibition at 10 μM)
same,A3: inhibition of radioligand binding,"[3]; [125I]-NDP-αMSH, human MC3 membranes, 10 µM",− (“−” indicates less than 50% inhibition at 10 μM)
same,A4: inhibition of radioligand binding,"[4]; [125I]-NDP-αMSH, human MC4 membranes, 10 µM",− (“−” indicates less than 50% inhibition at 10 μM)
same,A5: inhibition of radioligand binding,[5]; [14],+ (“+” indicates greater than 50% inhibition at 10 μM)
same,A6: inhibition of radioligand binding,[6]; [15],− (“−” indicates less than 50% inhibition at 10 μM)
same,A7: inhibition of radioligand binding,[7]; [16],− (“−” indicates less than 50% inhibition at 10 μM)
same,A8: inhibition of radioligand binding,[8]; [17],+ (“+” indicates greater than 50% inhibition at 10 μM)
same,A9: inhibition of radioligand binding,[9]; [18],− (“−” indicates less than 50% inhibition at 10 μM)
same,A10: inhibition of radioligand binding,"[10]; [125I]-Nociceptin, human ORL1 membranes, 10 µM",+ (“+” indicates greater than 50% inhibition at 10 μM)
same,A11: inhibition of radioligand binding,[11]; [19],− (“−” indicates less than 50% inhibition at 10 μM)
